Data as given in patent US20240150356A1, “Pyrimidine amide compounds and use thereof” (ALPHALA CO., LTD., priority 2019, published 2024).
Read-outs that look alike come from different tables or passages of the source.

Key:
Assay type in all cases: cell-based
[1] = system: SW480 (colon adenocarcinoma cell line); assay: In vitro MTS cell viability assay (NCI-60 methodology), SW480; conditions: Homo sapiens, SW480 cells, read-out: SW480 LC50
Experimental: (§1) The cell viability measurement is based on the NCI-60 screening methodology (Nat. Rev. Cancer 6, 813-823, 2006). Briefly, cells are inoculated into 96-well plates at the optimal plating density. After 24 h, one of the two plates for Hep3B cell line is processed to determine a time zero cell viability (Tz) by MTS assay (Promega). Compounds are added over a 2-fold serial dilution to provide a total five drug concentrations plus DMSO control. Plates are incubated for a further 2 days, then measured cell viability by MTS assay [control growth (C) and test growth in the presence of drug at the five concentration levels (Ti)]. The LC50 is calculated from [(Ti−Tz)/Tz]×100=−50, which is the drug concentration resulting in a 50% reduction at the end of the drug treatment as compared to that at the beginning.
(§2) The compounds prepared in Tables 1-10 were tested in three in vitro assays, and the results are shown in Tables 1-10 for Hep3B and Table 11 for SW480 and NCI-H460 shown below. Herein, Hep3B refers to hepatocellular carcinoma cell line, SW480 refers to colon adenocarcinoma cell line, and NCI-H460 refers to human lung cancer cell line.
(§3) Shown in Tables 11 are in vitro activities of exemplary compounds of formula (I).

[2] = system: Hep3B cells (hepatocellular carcinoma cell line); assay: In vitro MTS cell viability assay (NCI-60 methodology), Hep3B; conditions: Homo sapiens, 48 h, 2 days drug incubation, 50% reduction vs time zero, read-out: Hep3B LC50
Outline: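 Hep3B cells given five 2-fold dilutions of compound for 2 days, with viability by MTS measured at time zero and at end. LC50 is the concentration giving a 50% fall in viable cells relative to the start of treatment, per NCI-60 formula.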

[3] = system: NCI-H460 (human lung cancer cell line); assay: In vitro MTS cell viability assay (NCI-60 methodology), NCI-H460; conditions: NCI-H460 cells, read-out: NCI-H460 LC50
Experimental: as §1, §2, §3

Row | SMILES | CC50 [1] [nM] | CC50 [3] [nM] | LC50 ([2]; Table 6, MTS) [nM] | other results
1 | Cc1csc2c(NC(=O)c3ccc([N+](=O)[O-])s3)nc(-c3cccc(OC(F)(F)F)c3)nc12 [Compound 4-5, N-(7-methyl-2-(3-(trifluoromethoxy)phenyl)thieno[3,2-d]pyrimidin-4-yl)-5-nitrothiophene-2-carboxamide] | 3510 | 2450 |  | LC50 ([2]; Table 4, MTS): 790 nM
2 | O=C(Nc1nc(-c2ccc(Cl)cc2)nc2c1cnn2-c1ccc(C(F)(F)F)cn1)c1ccc([N+](=O)[O-])s1 [Compound 7-3, N-(6-(4-chlorophenyl)-1-(5-(trifluoromethyl)pyridin-2-yl)-1H-pyrazolo[3,4-1]pyrimidin-4-yl)-5-nitrothiophene-2-carboxamide] | 530 | 400 |  | LC50 ([2]; Table 7, MTS): 130 nM
3 | CC(C)(C)c1ccc(-n2ncc3c(NC(=O)c4ccc([N+](=O)[O-])s4)nc(N4CCC[C@H]4CO)nc32)cc1 [Compound 6-71, (S)—N-(1-(4-(tert-butyl)phenyl)-6-(2-(hydroxymethyl)pyrrolidin-1-yl)-1H-pyrazolo[3,4-d]pyrimidin-4-yl)-5-nitrothiophene-2-carboxamide] | 980 | 440 | 280 | 
4 | O=C(Nc1nc(-c2cccc(Cl)c2)nc2c1cnn2-c1ccc(F)cc1)c1ccc([N+](=O)[O-])s1 [Compound 6-117, N-(6-(3-chlorophenyl)-1-(4-fluorophenyl)-1H-pyrazolo[3,4-d]pyrimidin-4-yl)-5-nitrothiophene-2-carboxamide] | 910 | 600 | 150 | 
5 | Cn1ncc2c(NC(=O)c3ccc([N+](=O)[O-])s3)nc(/C=C/c3ccc(C(F)(F)F)cc3)nc21 [Compound 1-11, (E)-N-(1-methyl-6-(4-(trifluoromethyl)styryl)-1H-pyrazolo[3,4-d]pyrimidin-4-yl)-5-nitrothiophene-2-carboxamide] | 2240 | 2620 |  | LC50 ([2]; Table 1, MTS): 1710 nM
6 | COc1ccc(-c2nc(NC(=O)c3ccc([N+](=O)[O-])s3)c3cnn(-c4ccccc4)c3n2)cn1 [Compound 5-35, N-(6-(6-methoxypyridin-3-yl)-1-phenyl-1H-pyrazolo[3,4-d]pyrimidin-4-yl)-5-nitrothiophene-2-carboxamide] | 1110 | 650 |  | LC50 ([2]; Table 5, MTS): 180 nM
7 | O=C(Nc1nc(-c2cccc(Cl)c2)nc2c1cnn2-c1ccccc1)c1ccc([N+](=O)[O-])s1 [Compound 5-29, N-(6-(3-chlorophenyl)-1-phenyl-1H-pyrazolo[3,4-d]pyrimidin-4-yl)-5-nitrothiophene-2-carboxamide] | 660 | 950 |  | LC50 ([2]; Table 5, MTS): 210 nM
8 | COC(=O)c1ccc(-c2nc(NC(=O)c3ccc([N+](=O)[O-])s3)c3cnn(C4CCCCC4)c3n2)cc1 [Compound 10-32, methyl 4-(1-cyclohexyl-4-(5-nitrothiophene-2-carboxamido)-1H-pyrazolo[3,4-d]pyrmidin-6-yl)benzoate] | 1210 | 1720 |  | LC50 ([2]; Table 10, MTS): 400 nM
9 | O=C(Nc1nc(-c2ccc(F)c(F)c2)nc2c1cnn2C1CCCCC1)c1ccc([N+](=O)[O-])s1 [Compound 10-40, N-(1-cyclohexyl-6-(3,4-difluorophenyl)-1H-pyrazolo[3,4-d]pyrimidin-4-yl)-5-nitrothiophene-2-carboxamide] | 1040 | 1160 |  | LC50 ([2]; Table 10, MTS): 320 nM
10 | O=C(Nc1nc(-c2ccc(Cl)cc2)nc2c1cnn2-c1ccccc1)c1ccc([N+](=O)[O-])s1 [Compound 5-30, N-(6-(4-chlorophenyl)-1-phenyl-1H-pyrazolo[3,4-d]pyrimidin-4-yl)-5-nitrothiophene-2-carboxamide] | 2690 | 540 |  | LC50 ([2]; Table 5, MTS): 350 nM
11 | CC(C)(C)n1ncc2c(NC(=O)c3ccc([N+](=O)[O-])s3)nc(-c3ccc(OC(F)(F)F)cc3)nc21 [Compound 1-27, N-(1-(tert-butyl)-6-(4-(trifluoromethoxy)phenyl)-1H-pyrazolo[3,4-d]pyrimidin-4-yl)-5-nitrothiophene-2-carboxamide] | 4140 | 1990 |  | LC50 ([2]; Table 1, MTS): 610 nM
12 | O=C(Nc1nc(-c2ccc(N3CCCCC3)nc2)nc2c1cnn2-c1ccccc1)c1ccc([N+](=O)[O-])s1 [Compound 5-42, 5-nitro-N-(1-phenyl-6-(6-(piperidin-1-yl)pyridin-3-yl)-1H-pyrazolo[3,4-d]pyrimidin-4-yl)thiophene-2-carboxamide] | 890 | 1670 |  | LC50 ([2]; Table 5, MTS): 510 nM
13 | O=C(Nc1nc(-c2ccc(F)nc2)nc2c1cnn2-c1ccc(F)cc1)c1ccc([N+](=O)[O-])s1 [Compound 6-116, N-(1-(4-fluorophenyl)-6-(6-fluoropyridin-3-yl)-1H-pyrazolo[3,4-d]pyrimidin-4-yl)-5-nitrothiophene-2-carboxamide] | 550 | 500 | 90 | 
14 | O=C(Nc1nc(-c2cccc(F)c2)nc2c1cnn2-c1ccc(F)cc1)c1ccc([N+](=O)[O-])s1 [Compound 6-114, N-(6-(3-fluorophenyl)-1-(4-fluorophenyl)-1H-pyrazolo[3,4-d]pyrimidin-4-yl)-5-nitrothiophene-2-carboxamide] | 840 | 350 | 200 | 
15 | Cn1ncc2c(NC(=O)c3ccc([N+](=O)[O-])s3)nc(-c3ccc(OC(F)(F)F)cc3)nc21 [Compound 1-5, N-(1-methyl-6-(4-(trifluoromethoxy)phenyl)-1H-pyrazolo[3,4-1]pyrimidin-4-yl)-5-nitrothiophene-2-carboxamide] | 4320 | 2850 |  | 
16 | Cn1ncc2c(NC(=O)c3ccc([N+](=O)[O-])s3)nc(-c3ccc(C(F)(F)F)cc3)nc21 [Compound 1-4, N-(1-methyl-6-(4-(trifluoromethyl)phenyl)-1H-pyrazolo[3,4-d]pyrimidin-4-yl)-5-nitrothiophene-2-carboxamide] | 6190 | 3560 |  | 
17 | COc1ccc(-c2nc(NC(=O)c3ccc([N+](=O)[O-])s3)c3cnn(-c4ccc(C)cc4)c3n2)cn1 [Compound 6-6, N-(6-(6-methoxypyridin-3-yl)-1-(p-tolyl)-1H-pyrazolo[3,4-d]pyrimidin-4-yl)-5-nitrothiophene-2-carboxamide] |  |  | 400 | 
18 | O=C(Nc1nc(-c2ccc3c(c2)OCO3)nc2c1cnn2-c1ccc(Cl)cc1)c1ccc([N+](=O)[O-])s1 [Compound 6-50, N-(6-(benzo[d][1,3]dioxol-5-yl)-1(4-chlorophenyl)-1H-pyrazolo[3,4-d]pyrimidin-4-yl)-5-nitrothiophene-2-carboxamide] |  |  | 160 | 
19 | O=C(Nc1nc(-c2ccc3c(c2)OCO3)nc2c1cnn2-c1ccc(F)cc1)c1ccc([N+](=O)[O-])s1 [Compound 6-124, N-(6-(benzo[d][1,3]dioxol-5-yl)-1-(4-fluorophenyl)-1H-pyrazolo[3,4-d]pyrimidin-4-yl)-5-nitrothiophene-2-carboxamide] |  |  | 550 | 
20 | COc1ccc(-n2ncc3c(NC(=O)c4ccc([N+](=O)[O-])s4)nc(-c4ccc(Cl)cc4F)nc32)cc1 [Compound 6-22, N-(6-(4-chloro-2-fluorophenyl)-1-(4-methoxyphenyl)-1H-pyrazolo[3,4-d]pyrimidin-4-yl)-5-nitrothiophene-2-carboxamide] |  |  | 380 | 
21 | CC(C)(C)c1ccc(-c2nc(NC(=O)c3ccc([N+](=O)[O-])s3)nc3c2cnn3C(C)(C)C)cc1 [Compound 2-5, N-(1-(tert-butyl)-4-(4-(tert-butyl)phenyl)-1H-pyrazolo[3,4-d]pyrimidin-6-yl)-5-nitrothiophene-2-carboxamide] |  |  |  | LC50 ([2]; Table 2, MTS): 12900 nM
22 | COc1ccc(-c2nc(NC(=O)c3ccc([N+](=O)[O-])s3)c3cnn(Cc4cccc(F)c4)c3n2)cn1 [Compound 7-18] |  |  |  | LC50 ([2]; Table 7, MTS): > 1250 nM
23 | O=C(Nc1nc(-c2ccco2)nc2c1cnn2-c1ccccc1)c1ccc([N+](=O)[O-])s1 [Compound 5-17, N-(6-(furan-2-yl)-1-phenyl-1H-pyrazolo[3,4-d]pyrimidin-4-yl)-5-nitrothiophene-2-carboxamide] |  |  |  | LC50 ([2]; Table 5, MTS): 400 nM
24 | CCCOc1ccc(-c2nc(NC(=O)c3ccc([N+](=O)[O-])s3)c3cnn(C4CCC(F)(F)CC4)c3n2)cc1 [Compound 10-60, N-(1-(4,4-difluorocyclohexyl)-6-(4-propoxyphenyl)-1H-pyrazolo[3,4-d]pyrimidin-4-yl)-5-nitrothiophene-2-carboxamide] |  |  |  | LC50 ([2]; Table 10, MTS): 830 nM
